Publication PMC12733451, “A Novel RANKL/RANK Inhibitor IMB-R38 Inhibits Osteoporosis Through Regulating Bone Metabolism” (International Journal of Molecular Sciences, 2025)

Biological target: T1, RANK (Mus musculus, UniProt O35305)
T1 construct: gene Tnfrsf11a; extracellular segment of RANK (amino acid 26–210), His-RANK fusion expressed in E. coli
T1 sequence (O35305 26-210): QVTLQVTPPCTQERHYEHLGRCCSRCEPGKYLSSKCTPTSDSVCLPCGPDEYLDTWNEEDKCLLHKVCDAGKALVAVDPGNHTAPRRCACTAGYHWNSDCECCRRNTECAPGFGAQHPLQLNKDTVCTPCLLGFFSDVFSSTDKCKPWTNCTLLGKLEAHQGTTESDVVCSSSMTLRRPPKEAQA
Assay: SPR on immobilized RANK; supported by CETSA in RAW264.[…] cells
Format: binding

Kd: 945 µM
SMILES: O=C(Nc1ccc(N2CCCCC2)cc1)c1ccccc1O [IMB-R38, 2-hydroxy-N-(4-(piperidin-1-yl)phenyl)benzamide]
